Where “and” joins values, the source holds several entries; their conditions need not be identical. Equal entries are not always repeated.

For this assay, the target named is T1, receptor interacting protein kinase 1 (GST-hRIPK1 (8-327)) (Homo sapiens, UniProt Q13546).
T1 construct: GST-hRIPK1 (8-327) enzyme was generated by Proteros GmbH by Baculovirus expression system
T1 sequence (Q13546 8-327): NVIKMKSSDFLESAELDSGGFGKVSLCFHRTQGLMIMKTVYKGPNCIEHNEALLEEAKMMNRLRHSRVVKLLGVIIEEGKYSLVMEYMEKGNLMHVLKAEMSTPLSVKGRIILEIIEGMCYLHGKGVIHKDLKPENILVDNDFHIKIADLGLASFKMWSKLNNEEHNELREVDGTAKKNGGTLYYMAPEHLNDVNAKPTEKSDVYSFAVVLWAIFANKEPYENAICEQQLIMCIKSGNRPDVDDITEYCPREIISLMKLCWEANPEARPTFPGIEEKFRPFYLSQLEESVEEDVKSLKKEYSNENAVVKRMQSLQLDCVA
The assay is described as follows: Fluorescent Polarization Binding (FP Binding) assay. As to conditions: 10 nM GST-hRIPK1 (8-327), 5 nM fluorescent-labeled ligand, 30 min at RT. The method, then:
Fluorescent Polarization Binding (FP Binding) assay (Berger S. B. et al. (2015) Cell Death Discovery, 1: 15009; Maki J. L. et al. (2012) Anal Biochem., 427(2): 164-174) was performed in polystyrene low volume 384-well black plate, at Room Temperature (RT) in a final volume of 10.1 μl/well using 10 nM of GST-hRIPK1 (8-327) enzyme and 5 nM of fluorescent-labeled ligand (14-(2-{[3-({2-{[4-(cyanomethyl)phenyl]amino}-6-[(5-cyclopropyl-1H-pyrazol-3-yl)amino]-4-pyrimidinyl}amino) propyl]amino}-2-oxoethyl)-16,16,18,18-tetramethyl-6,7,7a,8a,9,10,16,18-octahydrobenzo[2″3″]indolizino[8″, 0.7″:5′,6′]pyrano[3′,2′:3,4]pyrido[1,2-a]indol-5-ium-2-sulfonate.
Test compounds were serially diluted in DMSO at 100 fold final concentrations in the assay (1% DMSO final). In each well of a 384-well Plate were dispensed 0.1 μL of compound solution (or DMSO for controls) followed by 5 μL of GST-hRIPK1 (8-327) at twice the final concentrations in assay-buffer (50 mM HEPES pH 7.5, 10 mM NaCl, 50 mM MgCl2, 0.02% CHAPS, 0.5 mM DTT and 0.01% Pluronic F127). For negative control the enzyme addition was replaced by assay buffer only.
After addition of 5 μL of fluorescent-labeled ligand at twice the final concentrations in assay buffer, the plate was incubated at RT for 30 min. At the end, the binding was measured as FP value with the Envision (PerkinElmer) plate reader using filter for an excitation λ=531 nm FP and an emission λ=595 nm FP (S & P-pol).
Test compound inhibition was expressed as percent inhibition of internal assay controls. For concentration response curves, normalized data is fit and IC50 determined using XL-fit (IDBS) for Excel. IC50 were averaged to determine a mean value, for a minimum of two independent experiments.
Receptor interacting protein kinase 1 activity of exemplary compounds was determined according to the above general procedures.
Receptor interacting protein kinase 1 activity of certain compounds was determined according to the above general procedures.
As usually defined, the IC50 is the concentration at which inhibition is half-maximal. Read a high IC50 as weaker potency. In turn, `CCC1(C(=O)N2OCC[C@H]2c2ccc(F)cc2)COC1` [Compound 38, (3S)-2-(3-Ethyloxetane-3-carbonyl)-3-(4-fluorophenyl)-1,2-oxazolidine] showed an IC50 of less than 1 µM.
The value for `CC(CC#N)C(=O)N1OCC[C@H]1c1ccc(C#N)cc1` (single isomer, unassigned) [Compound 210] was 1 to 10 µM.
Next, `O=C(c1cnn2ccccc12)N1OCC[C@H]1c1ccccc1` [Compound 21, (3S)-3-phenyl-2-{pyrazolo[1,5-a]pyridine-3-carbonyl}-1,2-oxazolidine]: 1 to 10 µM; `O=C(N1OCC[C@H]1c1ccc(F)cc1)C12CC(C1)C2` [Compound 32, (3S)-2-{Bicyclo[1.1.1]pentane-1-carbonyl}-3-(4-fluorophenyl)-1,2-oxazolidine]: less than 1 µM; `Cn1c(C#N)ccc1C(=O)N1OCC[C@@H]1c1ccc(F)cc1` [Compound 59, 5-[(3R)-3-(4-fluorophenyl)-1,2-oxazolidine-2-carbonyl]-1-methyl-1H-pyrrole-2-carbonitrile]: greater than 10 µM.
Compound `CC(C)(C)C(=O)N1OCCC1c1ccnnc1` (stereo not shown) [Compound 157, 2,2-dimethyl-1-[3-(pyridazin-4-yl)-1,2-oxazolidin-2-yl]propan-1-one] returned a 50% inhibitory concentration (IC50) of 1 to 10 µM.
Next, `CC(C)(C)C(=O)N1OCC[C@H]1c1ccc(F)c(F)c1` [Compound 50, 1-[(3S)-3-(3,4-Difluorophenyl)-1,2-oxazolidin-2-yl]-2,2-dimethylpropan-1-one]: less than 1 µM; `CC(C)(COC(F)F)C(=O)N1OCC[C@H]1c1ccc(C#N)cc1` [Compound 154, 4-[(3S)-2-[3-(difluoromethoxy)-2,2-dimethylpropanoyl]-1,2-oxazolidin-3-yl]benzonitrile]: less than 1 µM; `CC(C)(C)C(=O)N1OCC[C@H]1c1cccc(C#N)c1` [Compound 147, 3-[(3S)-2-(2,2-dimethylpropanoyl)-1,2-oxazolidin-3-yl]benzonitrile]: less than 1 µM.
Next, `CC(C(=O)N1OCC[C@H]1c1ccc(C#N)cc1)C(F)(F)F` (single isomer, unassigned) [Compound 179]: less than 1 µM; `CC(C)(C)C(=O)N1OCC[C@@H]1c1ccc(F)c(F)c1` [Compound 51, 1-[(3R)-3-(3,4-Difluorophenyl)-1,2-oxazolidin-2-yl]-2,2-dimethylpropan-1-one]: 1 to 10 µM; `O=C(C1C2COCC21)N1OCC[C@H]1c1ccc(F)nc1` (stereo partly drawn) [Compound 160, 2-fluoro-5-[(3S)-2-{3-oxabicyclo[3.1.0]hexane-6-carbonyl}-1,2-oxazolidin-3-yl]pyridine]: 1 to 10 µM.
The value for `CC(C)(C)C(=O)N1OCC[C@H]1c1cc(F)cc(C#N)c1` (single isomer, unassigned) [Compound 109] was < 1 µM and 0.007 µM; that for `Cc1cnc([C@@H]2CCON2C(=O)C(C)(C)C)cn1` [Compound 138, 2,2-dimethyl-1-[(3S)-3-(5-methylpyrazin-2-yl)-1,2-oxazolidin-2-yl]propan-1-one] was less than 1 µM; that for `O=C(N1OCC[C@H]1c1ccc(F)cc1)C1(C(F)(F)F)CCC1` [Compound 39, (3S)-3-(4-Fluorophenyl)-2-[1-(trifluoromethyl)cyclo-butanecarbonyl]-1,2-oxazolidine] was less than 1 µM.
Consider `CC1(C(=O)N2OCC[C@H]2c2ccc(F)c(F)c2)CCOC1` (single isomer, unassigned) [Compound 211], for which the concentration for half-maximal inhibition (IC50) is less than 1 µM.
The value for `CC(C)(C)C(=O)N1OCC[C@@H]1c1ccnc(F)c1` [Compound 45, 1-[(3R)-3-(2-Fluoropyridin-4-yl)-1,2-oxazolidin-2-yl]-2,2-dimethylpropan-1-one] was 1 to 10 µM; that for `CC(C)(C)C(=O)N1OCC[C@H]1c1cc[nH]n1` [Compound 190, 2,2-dimethyl-1-[(3S)-3-(1H-pyrazol-5-yl)-1,2-oxazolidin-2-yl]propan-1-one] was less than 1 µM.
The value for `CC(C)(C)C(=O)N1OCC[C@H]1c1ccc(Cl)cn1` [Compound 89, 1-[(3S)-3-(5-chloropyridin-2-yl)-1,2-oxazolidin-2-yl]-2,2-dimethylpropan-1-one] was less than 1 µM; that for `CC(C)(C)C(=O)N1OCC[C@H]1c1ncc(Cl)cc1F` [Compound 121, 1-[(3S)-3-(5-chloro-3-fluoropyridin-2-yl)-1,2-oxazolidin-2-yl]-2,2-dimethylpropan-1-one] was less than 1 µM.
Next, `CC1(C(=O)N2OCC[C@H]2c2ccc(F)cc2)CC1(F)F` (single isomer, unassigned) [Compound 115]: less than 1 µM; `CC1(C(=O)N2OCC[C@H]2c2ccc(F)cc2)CNC1` [Compound 43, (3S)-3-(4-Fluorophenyl)-2-(3-methylazetidine-3-carbonyl)-1,2-oxazolidine]: greater than 10 µM.
`CC(C)(C)C(=O)N1OCC[C@H]1c1ccc(C(F)F)nc1` [Compound 105, 1-[(3S)-3-[6-(difluoromethyl)pyridin-3-yl]-1,2-oxazolidin-2-yl]-2,2-dimethylpropan-1-one] came in with an IC50 of less than 1 µM.
The value for `O=C(N1OCC[C@H]1c1ccc(F)nc1)C1(C(F)F)CC1` [Compound 170, 5-[(3S)-2-[1-(difluoromethyl)cyclo-propanecarbonyl]-1,2-oxazolidin-3-yl]-2-fluoropyridine] was less than 1 µM; that for `CC(C)(C(=O)N1OCC[C@H]1c1ccc(C(F)F)c(C#N)c1)C(F)F` [Compound 227, 5-[(3S)-2-(3,3-difluoro-2,2-dimethylpropanoyl)-1,2-oxazolidin-3-yl]-2-(difluoromethyl)benzonitrile] was less than 1 µM.
The value for `Cc1ncc([C@@H]2CCON2C(=O)C(C)(C)C)cc1C#N` [Compound 219] was less than 1 µM; that for `CC(C)(C(=O)N1OCC[C@H]1c1cncc(C#N)c1)C(F)F` [Compound 200, (S)-5-(2-(3,3-difluoro-2,2-dimethylpropanoyl)isoxazolidin-3-yl)nicotinonitrile] was < 1 µM and 0.009 µM.
Consider `Cc1ncc([C@@H]2CCON2C(=O)C(C)(C)C(F)F)cc1F` [Compound 195, 3,3-difluoro-1-[(3S)-3-(5-fluoro-6-methylpyridin-3-yl)-1,2-oxazolidin-2-yl]-2*2-dimethylpropan-1-one], for which the IC50 was < 1 µM and 0.01 µM.
The value for `CC(C(=O)N1OCC[C@H]1c1ccc(F)cc1)C(F)(F)F` (single isomer, unassigned) [Compound 95] was less than 1 µM.
Next, `Cc1cncc([C@@H]2CCON2C(=O)C(C)(C)C)n1` (single isomer, unassigned) [Compound 107]: less than 1 µM; `[2H]C1([2H])C[C@@H](c2ccc(C#N)cc2)N(C(=O)C(C)(C)C)O1` (single isomer, unassigned) [Compound 98]: less than 1 µM; `CC(OC(F)(F)F)C(=O)N1OCC[C@H]1c1ccc(F)nc1` (single isomer, unassigned) [Compound 185]: 1 to 10 µM.
The compound `CC(C)(C)C(=O)N1OCC[C@H]1c1nc(C(F)(F)F)cs1` [Compound 123, 2,2-dimethyl-1-[(3S)-3-[4-(trifluoromethyl)-1,3-thiazol-2-yl]-1,2-oxazolidin-2-yl]propan-1-one] returned an IC50 of 1 to 10 µM.
`CC(C)(C(=O)N1OCC[C@H]1c1ccc(F)cc1)N1CCC1` [Compound 156, 2-(azetidin-1-yl)-1-[(3S)-3-(4-fluorophenyl)-1,2-oxazolidin-2-yl]-2-methylpropan-1-one]: the IC50 fell in the range of 1 to 10 µM.

These data come from patent US10709692B2, “Isoxazolidine derived inhibitors of receptor interacting protein kinase 1 (RIPK1)” (Denali Therapeutics Inc., priority 2015, dated 2020).
